Assay results as given in PubChem BioAssay (NCI).
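Test compounds were applied to cells in 96-well plates for 48 hours at 5 doses. Abbreviation: GI50, concentration required for 50% inhibition of growth. At the TGI there is no net growth.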

Columns and labels:
Experiment in all cases: growth of human tumour cells (NCI), 48 h
BT-549 breast = test system: BT-549 breast
UACC-62 melanoma = test system: UACC-62 melanoma
SK-MEL-28 melanoma = test system: SK-MEL-28 melanoma
NCI/ADR-RES ovarian = test system: NCI/ADR-RES ovarian
SW-620 colon = test system: SW-620 colon
MOLT-4 leukemia = test system: MOLT-4 leukemia
SF-539 CNS = test system: SF-539 CNS
ACHN renal = test system: ACHN renal
CCRF-CEM leukemia = test system: CCRF-CEM leukemia
A498 renal = test system: A498 renal

| SMILES | TGI (BT-549 breast) [µM] | TGI (UACC-62 melanoma) [µM] | TGI (SK-MEL-28 melanoma) [µM] | TGI (NCI/ADR-RES ovarian) [µM] | TGI (SW-620 colon) [µM] | TGI (MOLT-4 leukemia) [µM] | TGI (SF-539 CNS) [µM] | TGI (ACHN renal) [µM] | TGI (CCRF-CEM leukemia) [µM] | TGI (A498 renal) [µM] | GI50 (BT-549 breast) [µM] | GI50 (SK-MEL-28 melanoma) [µM] | GI50 (SW-620 colon) [µM] | GI50 (A498 renal) [µM] | GI50 (ACHN renal) [µM] | GI50 (CCRF-CEM leukemia) [µM] | GI50 (UACC-62 melanoma) [µM] | GI50 (NCI/ADR-RES ovarian) [µM] | GI50 (MOLT-4 leukemia) [µM] |
| --- | --- | --- | --- | --- | --- | --- | --- | --- | --- | --- | --- | --- | --- | --- | --- | --- | --- | --- | --- |
| Cc1ccc(S(=O)(=O)c2c(O)c3ccc(O)c(C)c3oc2=O)cc1 | > 100 | > 100 | > 100 | > 100 | > 100 | > 100 | > 100 | > 100 | > 100 | – | – | – | – | – | – | – | – | – | – |
| CCOC(=O)Cn1nnc2cc(Nc3c(C)[n+]([O-])c4cc(F)c(OCC)cc4[n+]3[O-])ccc21 | – | – | > 100 | > 100 | > 100 | > 100 | > 100 | > 100 | > 100 | > 100 | – | – | – | – | – | – | – | – | – |
| O=P1(C(O)/C=C/c2ccccc2)N(Cc2ccccc2)[C@@H]2CCCC[C@H]2N1Cc1ccccc1 (some centres undefined) | 34.2 | 21.2 | 28.1 | 51.6 | 33.3 | 9.77 | – | 37.1 | > 100 | 11.2 | – | – | – | – | – | – | – | – | – |
| COc1cccc(N2C(=O)CS(=O)(=O)C2c2cccc(Oc3ccccc3)c2)c1 (centres undefined) | 61.4 | 24.7 | > 100 | 77.3 | > 100 | 57.6 | 38.4 | 60.2 | > 100 | 36.7 | – | – | – | – | – | – | – | – | – |
| CC1=C(C(=O)NC2CCCCC2)CC(C(=O)NC2CCCCC2)=C(C)N1 | > 100 | > 100 | > 100 | – | > 100 | > 100 | > 100 | > 100 | > 100 | > 100 | – | – | – | – | – | – | – | – | – |
| Nc1c(S(N)(=O)=O)cc(S(N)(=O)=O)cc1S(N)(=O)=O | > 100 | > 100 | > 100 | > 100 | > 100 | > 100 | – | > 100 | – | > 100 | – | – | – | – | – | – | – | – | – |
| CC(O)CNC1=CC(=O)C(=O)c2ccccc21 (centres undefined) | – | 26.8 | 35 | – | 40.1 | 59.9 | 38.5 | 35.6 | > 100 | 62.9 | – | – | – | – | – | – | – | – | – |
| NC(N)=NS(=O)(=O)c1ccc(NC(=O)c2cccc3c(NNc4ccc(S(N)(=O)=O)cc4)c4ccccc4nc23)cc1 | > 100 | > 100 | > 100 | > 100 | > 100 | 74.1 | > 100 | > 100 | > 100 | – | – | – | – | – | – | – | – | – | – |
| CCN1CCN(Cc2ccc(NC(=O)Nc3ccc(-n4ccc5c(NC(=O)c6ccccc6)nccc54)cc3)cc2C(F)(F)F)CC1 | 2.77 | – | 3.07 | – | 1.7 | – | – | 2.11 | > 100 | 19.1 | 1.43 | 1.62 | 0.513 | 5.17 | 0.907 | 0.426 | – | – | – |
| CC[N+]1(C)CCC(O)(c2ccc(C)cc2)C(C(=O)c2ccc(C)cc2)C1 (centres undefined) | > 100 | > 100 | – | > 100 | 39.3 | 48.1 | > 100 | 48 | 44.2 | > 100 | – | – | – | – | – | – | – | – | – |
| COC(=O)C1=C(C(=O)OC)SC(=C2SC3=C(SC(=C4SCCS4)S3)S2)S1 | > 100 | > 100 | > 100 | > 100 | > 100 | > 100 | – | > 100 | > 100 | > 100 | – | – | – | – | – | – | – | – | – |
| Cc1nc(SCC(N)=O)c2sc(=S)n(-c3ccccc3)c2n1 | – | > 10 | > 10 | > 10 | > 10 | > 10 | > 10 | > 10 | > 10 | > 10 | – | – | – | – | – | – | – | – | – |
| CCCO/N=[N+](\[O-])N(CC)CC | – | > 100 | > 100 | – | > 100 | > 100 | > 100 | > 100 | > 100 | > 100 | – | – | – | – | – | – | – | – | – |
| NCCCCNCCCNC(=O)CNC(=O)CC(O)C(N)CCCC(NC(=O)C(CN)NC(=O)C(O)CNC(=O)CC(N)c1ccc(O)cc1)C(=O)O (centres undefined) | > 10 | > 10 | > 10 | > 10 | – | > 10 | > 10 | > 10 | > 10 | > 10 | – | – | – | – | – | – | – | – | – |
| Cn1c2c(c3ccccc31)CCN1C(=O)C34CCCC3CC21S4 (centres undefined) | > 100 | > 100 | > 100 | > 100 | > 100 | > 100 | > 100 | > 100 | – | > 100 | – | – | – | – | – | – | – | – | – |
| Clc1ccc(OCc2nnc(COc3ccc(OCc4nnc(COc5ccc(Cl)cc5Cl)o4)c(Cl)c3)o2)c(Cl)c1 | > 100 | > 100 | > 100 | 66.7 | > 100 | – | – | > 100 | 38.5 | > 100 | – | – | – | – | – | – | – | – | – |
| CC1CCc2sc3nc4n(c(=O)c3c2C1)CC(C)S4 (centres undefined) | > 100 | 38.7 | 83.1 | > 100 | > 100 | – | – | 62.2 | – | – | – | – | – | – | – | – | – | – | – |
| COc1cc2[nH]c(=O)c3cc(-c4ccccc4)cc4c(Cl)nc(c1OC)c2c43 | > 67 | 34.6 | > 100 | > 38.3 | > 66.1 | > 44.7 | – | 77.6 | > 67 | > 100 | – | – | – | – | – | – | – | – | – |
| N#C/C(=C\c1cccc(Br)c1)c1nc2ccccc2c(=O)[nH]1 | – | > 100 | > 100 | > 100 | > 100 | > 100 | > 100 | > 100 | > 100 | – | – | – | – | – | – | – | – | – | – |
| COCC#C[C@@]1(O)CCCCC1CC(OC)OC (some centres undefined) | – | > 100 | > 100 | > 100 | – | > 100 | – | > 100 | > 100 | > 100 | – | – | – | – | – | – | – | – | – |
| O=C1/C(=C/c2ccc(Cl)cc2)CCCc2ccc(F)cc21 | > 100 | 47 | 40.9 | 73.5 | 31.6 | > 100 | – | 68.5 | 61 | – | 39.8 | 14.7 | 15.4 | – | 27.8 | 11.5 | 16.1 | 26.6 | 12.1 |
